One data set has as its target T1, GR/NUC chimeric receptor (Homo sapiens, UniProt Q03181).
T1 construct: transfected cells, MMTV-luciferase
T1 sequence (Q03181 1-441): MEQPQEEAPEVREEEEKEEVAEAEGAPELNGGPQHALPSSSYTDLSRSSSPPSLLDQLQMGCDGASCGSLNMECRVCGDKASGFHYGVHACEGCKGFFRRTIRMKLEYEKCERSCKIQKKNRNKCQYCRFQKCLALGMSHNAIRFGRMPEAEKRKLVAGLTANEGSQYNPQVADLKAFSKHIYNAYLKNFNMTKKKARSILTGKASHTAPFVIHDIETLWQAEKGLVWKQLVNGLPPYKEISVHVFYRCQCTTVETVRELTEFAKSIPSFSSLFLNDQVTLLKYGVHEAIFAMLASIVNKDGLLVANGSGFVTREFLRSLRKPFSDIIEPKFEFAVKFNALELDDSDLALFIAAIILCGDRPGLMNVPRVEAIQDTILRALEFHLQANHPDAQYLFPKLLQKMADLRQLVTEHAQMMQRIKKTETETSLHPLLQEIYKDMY
T1 sequence (P06537 1-792 partner): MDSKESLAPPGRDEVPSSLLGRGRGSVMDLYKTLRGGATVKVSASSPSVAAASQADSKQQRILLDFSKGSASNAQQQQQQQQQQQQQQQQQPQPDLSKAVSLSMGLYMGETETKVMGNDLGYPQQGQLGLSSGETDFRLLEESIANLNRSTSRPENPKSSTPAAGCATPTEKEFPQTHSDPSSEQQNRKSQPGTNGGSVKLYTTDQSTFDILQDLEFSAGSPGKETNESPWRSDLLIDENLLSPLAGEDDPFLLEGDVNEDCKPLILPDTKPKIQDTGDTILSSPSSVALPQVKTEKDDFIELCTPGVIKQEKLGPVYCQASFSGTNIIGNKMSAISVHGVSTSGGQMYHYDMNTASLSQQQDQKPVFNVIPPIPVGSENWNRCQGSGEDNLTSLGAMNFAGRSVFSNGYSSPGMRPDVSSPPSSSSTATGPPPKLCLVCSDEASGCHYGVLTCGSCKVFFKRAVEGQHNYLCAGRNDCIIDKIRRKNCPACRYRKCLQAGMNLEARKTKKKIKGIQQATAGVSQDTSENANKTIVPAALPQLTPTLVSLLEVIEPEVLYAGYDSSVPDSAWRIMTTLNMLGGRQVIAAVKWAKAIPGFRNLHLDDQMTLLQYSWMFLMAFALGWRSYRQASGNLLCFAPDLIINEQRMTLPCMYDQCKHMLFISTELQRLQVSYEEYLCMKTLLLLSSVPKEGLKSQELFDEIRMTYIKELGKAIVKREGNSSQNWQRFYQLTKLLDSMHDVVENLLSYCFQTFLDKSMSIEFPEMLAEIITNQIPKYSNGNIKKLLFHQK
Description: Ligand dependent transcription assay, GR/NUC chimeric receptor with MMTV-luciferase reporter. Format: cell-based. Here is the method: (§1) Similar hybrid receptors GR/NER, GR/NUC and GR/PPAR, in identical expression plasmid backgrounds were prepared essentially as described for the construction of the GR/mPPAR and GR/NUC chimeric receptors in Schmidt et al., "Identification of a new member of the steroid hormone receptor superfamily that is activated by a peroxisome proliferator and fatty acids," Mol. Endocrinol., 6(10):1634-41, 1992, and in Boie et al., "Enantioselective activation of the peroxisome proliferator-activated receptor", J. Biol. Chem. 268(8):5530-4, 1993.
(§2) Briefly, the amino terminal portion of the mouse glucocorticoid receptor (mGR), that includes the DNA binding domain was fused to the putative ligand binding domains of the nuclear receptor NER, hNUC-I (Schmidt et al., 1992), mPPAR (Issenmann and Green, 1990) to form the respective chimeric receptors GR/NER, GR/NUC and GR/PPAR. The GR/NER chimeric receptor was constructed as described for the GR/NUC and GR/PPAR hybrid receptors (Schmidt et al., 1992; Boie et al). The cDNA sequences coding for amino acids Arg^155 and Glu^156 of the NER receptor were converted to the Xho I restriction site, that was later used for the ligation to the GR cDNA sequences that coded for the DNA binding domain. Thus, converting amino acid residues Arg^155 and Glu^156 of NER receptor to amino acid residues Ser^155 and His^156.
A general note: In a reporter assay the amount or activity of a reporter protein is the signal.

Data set [1] deals with T2, GR/PPAR chimeric receptor (Mus musculus, UniProt P23204).
T2 construct: COS cells, MMTV-luciferase
T2 sequence (P23204 1-468): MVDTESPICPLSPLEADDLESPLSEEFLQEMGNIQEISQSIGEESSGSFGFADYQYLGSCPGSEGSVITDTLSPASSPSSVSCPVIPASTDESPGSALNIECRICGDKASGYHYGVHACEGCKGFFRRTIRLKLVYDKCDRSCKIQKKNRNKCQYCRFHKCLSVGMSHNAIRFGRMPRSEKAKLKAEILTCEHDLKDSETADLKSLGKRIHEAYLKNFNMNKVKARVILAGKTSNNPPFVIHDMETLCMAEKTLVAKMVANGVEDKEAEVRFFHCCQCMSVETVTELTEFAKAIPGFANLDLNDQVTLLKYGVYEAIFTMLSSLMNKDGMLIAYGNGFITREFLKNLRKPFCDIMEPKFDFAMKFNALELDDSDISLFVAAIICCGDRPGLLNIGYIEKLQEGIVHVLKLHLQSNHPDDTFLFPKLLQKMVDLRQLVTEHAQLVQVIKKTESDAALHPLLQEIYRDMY
T2 sequence (P06537 1-792 partner): T1 sequence (P06537 1-792 partner)
Put plainly: Ligand dependent transcription assay, GR/PPAR chimeric receptor with MMTV-luciferase reporter. The data set is classed as cell-based. Here is the method: as §1, §2
The ligand transcription assay mediated by GR/PPAR in COS cells was performed as described in Example 4. The cells were treated with TOFA and Cerulenin at 0.1, 1, 10 and 100 μM.

The test system of another data set is GR/NER chimeric receptor. Description: Activation of GR/NER in CV1 cells (luciferase). Here is the method:
The ligand dependent transcription assays were performed as described in Example 4, using CV1 cells in place of COS cells. The transfected CV1 cells were treated with dopamine, TOFA, or with a combination of TOFA and dopamine at the indicated concentrations and tested for luciferase activity.
CV1 cells were co-transfected with the MMTV-Luciferase reporter gene (pJA358) and the GR/NER chimeric receptor as described in Example 4. The cells were treated with increasing amount of the dopamine D1 receptor antagonist SCH 23390 with or without 50 μM […] dopamine.

The target of data set [2] is T3, native mouse glucocorticoid receptor (Mus musculus, UniProt P06537).
T3 sequence (P06537 1-792): T1 sequence (P06537 1-792 partner)
Put plainly: Transcription assay, native glucocorticoid receptor co-transfected with MMTV-luciferase reporter.
Description: The reporter gene was the plasmid pJA358 in which the expression of firefly luciferase is regulated by two tandem repeats of the glucocorticoid hormone response element (GRE) linked to the MMTV promoter (Boie et al., 1993).
Transient transfection of COS and CV1 cells was performed as described (Schmidt 1992). Cells were plated (1.5×10^5 in 1 mL) into 12 well dishes in phenol red-free medium supplemented with activated charcoal treated fetal calf serum. The next day 0.12 mL of DNA 10 μg/ml (5 μg receptor DNA and 5 μg reporter plasmid), as a calcium phosphate precipitate, was added to the cells. Ligands were added to the cells 30 minutes after transfection. The next day (18 hours), the cells were washed and fresh ligands added. Twenty-four hours later, cell extracts were prepared and assayed for luciferase enzyme activity using the luciferase assay system (Promega Madison, Wis.). Each transfection was performed in triplicate and the luciferase activity of each sample measured in duplicate using the AutoClinilumat (Berthold Nashua, N.H.).
The transfected cells were treated with TOFA at 2 μM, 10 μM, 20 μM, and 50 μM and oleic acid at 50 μM, and 300 μM.

[3] abbreviates: read-out: Fold of stimulation GR/NUC.
The mark [4] stands for this setting: COS, read-out: Fold of stimulation GR/PPAR.
The mark [5] stands for this setting: read-out: Fold of stimulation GR.

Like-named read-outs stand apart in the source and are kept apart here.

Take `CCCCCCCCCCCCCCOc1ccc(C(=O)O)o1` [TOFA, 5-(tetradecyloxy)-2-furan carboxylic acid]: on GR/NUC chimeric receptor, the “Expression mediated by GR/NUC” value is recorded as “stimulated expression”. Further, on GR/NUC chimeric receptor (setting [3]), the fold induction at 2 µM was determined as 1.95 ± 0.14, the fold induction at 10 µM came to 2.85 ± 0.2 and the fold induction at 50 µM turned out to be 3.19 ± 0.2. For the same molecule, the “Expression mediated by GR/PPAR” value in data set [1] is “stimulated expression”. Also, in data set [1] (setting [4]), the fold induction at 0.1 µM is 1.04 ± 0.14, the fold induction at 1 µM was found to be 2.38 ± 0.16, the fold induction at 10 µM was determined as 4.43 ± 0.23 and the fold induction at 100 µM is 4.1 ± 0.52. Also, the fold induction at 10 µM in data set [1] (read-out: Fold of stimulation GR/PPAR) was found to be 4.08 ± 0.1. Moreover, the “Fold of stimulation GR/NER” value in the data set on GR/NER chimeric receptor (TOFA 10 μM with dopamine 100 μM) was found to be 1.40 ± 0.05 fold. The “Fold of stimulation GR/NER” value in the data set with GR/NER chimeric receptor (TOFA 100 μM with dopamine 100 μM) amounted to 1.60 ± 0.07 fold. The “Fold of stimulation GR/NER” value with GR/NER chimeric receptor (TOFA 100 μM, no dopamine) is 3.70 ± 0.06 fold. The “Expression of MMTV-luciferase reporter after co-transfection of native glucocorticoid receptor” value in data set [2] was “did not stimulate expression”. For the same molecule, in data set [2] (setting [5]), the fold induction at 2 µM amounted to 1.02 ± 0.4, the fold induction at 10 µM was found to be 0.8 ± 0.14 and the fold induction at 50 µM was 0.91 ± 0.3.

Values taken from patent US5607967A, “Treatment of alzheimer's disease with 5-(tetradecyloxy)-2-furan carboxylic acid” (Merck & Co., Inc., priority 1994, dated 1997).
